The test system of one series is sensitized guinea-pigs. Conditions: intravenous administration; cited from earlier work.
The subject of the next series is skin of minipigs. Briefly: 28-day study in minipigs: dermal tolerability and exposure. Conditions: no observed effect in minipigs. Type of series: in vivo. As for the experimental part:
This dose level is well below that tested and shown to be well-tolerated in a 28-day study in minipigs. Specifically, the NOAEL for dermal tolerability of BTX 1503 5% (w/w) on the skin of minipigs was 3.0 mg/cm^2/day (150 mg/kg/day), which is ~7.5 times the daily dose delivered in this study. In addition, based on the ratio of the mean Cmax observed in the 28-day minipig study to the mean Cmax in the 3 mL BID cohort in the Phase 1 a healthy volunteer study, there was >300 times the level of CBD, with no observed effect, in the minipigs.

The nature of series [1]: Franz-type diffusion cell skin permeation of CBD from BTX 1503 5% Solution. Format: in vitro ADME. Conditions: 48 hours; equivalent of ng/g of tissue. As for the experimental part:
Dermatomed skin from a single donor was mounted in a Franz-type diffusion cell (0.55 cm^2 receptor fluid exposure surface area) and dosed with 5 ul of 2-[3-methyl-6-(1-methylethenyl)-2-cyclohexen-1-yl]-5-pentyl-1,3-benzenediol (CBD), BTX 1503 5% Solution, formulated in an mixture of a volatile solvent (hexylmethyldisiloxane/polymethylsiloxane—93% w/w), and residual solvent (arlamol E—2% w/w) at a concentration of 5.0% (w/w; 35.5 mg/ml). Following dosing, receptor phase samples were collected at 4, 10, 24 and 48 hours; after which the study was terminated.
The residual formulation was removed by tape stripping and the epidermis and dermis separated by blunt dissection. The levels of CBD in the epidermis, dermis, and receptor fluid samples were then analyzed using a bioanalytical method with LC-MS/MS detection.

Series [2] in a line: Healthy volunteer study of single and multiple-dose BTX 1503 5% Solution (BTX.2017.001): pharmacokinetics. Format: in vivo, human (healthy volunteers). The following applies: for Tmax: Day 1; for Cmax: topical or ocular, topical, Day 1, plasma CBD, read-out: mean Cmax after the first dose. As for the experimental part: The pharmacokinetics (PK) of single and multiple-dose administration of BTX 1503 5% Solution were evaluated in a healthy volunteer study. In this study, BTX 1503 5% Solution was applied as a single dose either QD or BID (12 hrs apart) on Day 1 followed by a 6-day washout period, then either QD or BID for 14 days (Day 8 to Day 21). Five subjects were enrolled in each cohort and doses were escalated for each sequential cohort enrolled with the following doses. • Cohort 1: 37.5 mg CBD/day or 0.066 mg/cm^2/day applied as 1 mL of BTX 1503 5% (w/w) QD • Cohort 2: 75 mg CBD/day or 0.133 mg/cm^2/day applied as 1 mL BTX 1503 5% (w/w) BID • Cohort 3: 112.5 mg CBD/day or 0.199 mg/cm^2/day applied as 3 mL of BTX 1503 5% (w/w) QD • Cohort 4: 225 mg CBD/day or 0.398 mg/cm^2/day applied as 3 mL of BTX 1503 5% (w/w) BID Area of application assumed to be 565 cm^2 (i.e., on the face), which is reported by the European Union Scientific Committee on Consumer Safety (SCCS) to be half of the surface area for a female head (SCCS Notes of Guidance for the Testing of Cosmetic Substances and Their Safety Evaluation, 8th edition, 2012; Table 2).
Blood samples were taken for PK assessments on Day 1 (Baseline) at pre-dose (15 mins before dosing), 30, 60 and 90 mins and 2, 2.5, 3, 4, 6, 8 and 12 hrs, and 24 hrs after the first single dose. For participants that received BID dosing, samples were also taken at 30, 60 and 90 mins and 2, 2.5, 3, 4, 6, and 8 hrs after the second dose on Day 1.
During the multiple dose (14-day) phase, trough levels were obtained before the morning application on Day 15. On Day 21, blood samples were taken for PK assessments at pre-dose (15 mins before dosing), 30, 60 and 90 mins and 2, 2.5, 3, 4, 6, 8 and 12 hrs, 24 hrs and 48 hrs after the morning dose. For participants that received BID dosing, samples were also be taken at 30, 60 and 90 mins and 2, 2.5, 3, 4, 6, and 8 hrs after the second dose on Day 21. A sample was obtained on Day 23, 48 hrs after the last morning dose.

The nature of series [3]: Open-label study in patients with acne vulgaris: study drug (CBD) plasma levels. Format: in vivo, human. Conditions: throughout the study, 225 mg CBD/day topical. The text has this: Subjects returned to the clinic on Day 14 for vital signs, cutaneous tolerability assessments, and a blood draw for study drug plasma levels. Subjects were also queried for adverse events (AEs) and changes in concomitant medications. Diaries and study drug were returned and reviewed for compliance. In addition, the subject applied their morning dose of study drug during the visit for the clinical site to confirm correct application techniques. Another 14 days of study drug were dispensed along with the diary for the last two weeks of study drug treatment. […]
Safety was the primary outcome measure. The safety outcomes were measured through assessment of: • AEs monitored from time of consent through the end of study. • Cutaneous tolerability (erythema, scaling, dryness, burning/stinging, and irritant/allergic contact dermatitis) collected at Baseline, Day 14, Day 28, and Day 35 and graded using the following scale: 0, None; 1, Slight; 2, Moderate; 3, Severe. • Vital signs (temperature, blood pressure, and pulse) obtained at Baseline, Day 14, Day 28 and Day 35. • Complete blood count (CBC), chemistry, and urinalysis at Baseline and at Day 28. Blood levels of study drug will be measured at Baseline and prior to dosing (trough level) on Day 14, Day 28, and Day 35. […]

A further series deals with rats. The following applies: injected; cited from earlier work.
For series [4], the system named is immortalized human sebocytes. The following applies: cited from earlier work.
Series [5] deals with human vanilloid receptor type 1 (VR1) (Homo sapiens, UniProt Q8NER1). Conditions: in vitro; cited from earlier work.
human vanilloid receptor type 1 (VR1), sequence (Q8NER1 whole entry): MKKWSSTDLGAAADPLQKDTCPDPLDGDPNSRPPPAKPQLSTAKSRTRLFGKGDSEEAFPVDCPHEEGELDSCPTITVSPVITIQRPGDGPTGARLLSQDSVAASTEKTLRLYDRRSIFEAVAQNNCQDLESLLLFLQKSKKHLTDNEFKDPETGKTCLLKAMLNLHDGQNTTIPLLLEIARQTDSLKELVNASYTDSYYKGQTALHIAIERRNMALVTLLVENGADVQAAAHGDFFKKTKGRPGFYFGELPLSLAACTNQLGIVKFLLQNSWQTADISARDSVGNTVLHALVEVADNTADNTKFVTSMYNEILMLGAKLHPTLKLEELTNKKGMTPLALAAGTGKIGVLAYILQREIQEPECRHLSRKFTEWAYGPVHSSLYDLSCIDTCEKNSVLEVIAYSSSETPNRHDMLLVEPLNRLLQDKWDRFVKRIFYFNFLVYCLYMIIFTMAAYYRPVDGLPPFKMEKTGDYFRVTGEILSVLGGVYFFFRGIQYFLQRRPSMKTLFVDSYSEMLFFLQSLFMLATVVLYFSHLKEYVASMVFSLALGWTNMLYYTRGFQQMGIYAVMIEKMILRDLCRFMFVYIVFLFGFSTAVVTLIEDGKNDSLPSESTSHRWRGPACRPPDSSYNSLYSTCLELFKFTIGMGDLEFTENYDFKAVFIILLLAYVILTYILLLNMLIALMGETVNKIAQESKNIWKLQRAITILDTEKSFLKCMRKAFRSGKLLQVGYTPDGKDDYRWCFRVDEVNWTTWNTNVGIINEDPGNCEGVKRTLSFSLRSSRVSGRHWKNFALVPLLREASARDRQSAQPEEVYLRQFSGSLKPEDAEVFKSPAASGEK

Read-outs that look alike come from different tables or passages of the source. Some results are limits rather than exact numbers.

The term Tmax denotes the time from dosing to the highest level. By Cmax is commonly meant the peak of the concentration-time curve.

In the case of `C=C(C)C1CCC(C)=CC1c1c(O)cc(CCCCC)cc1O` (centres unmarked) [CBD, 2-[3-methyl-6-(1-methylethenyl)-2-cyclohexen-1-yl]-5-pentyl-1,3-benzenediol], the “effect on airway obstruction” value in the series with sensitized guinea-pigs is reported as “reduced airway obstruction”. In addition, in the series with skin of minipigs, the “ratio of mean Cmax in 28-day minipig study to mean Cmax in 3 mL BID healthy volunteer cohort” value is recorded as greater than 300 times. In addition, the dermis concentration in series [1] was ~ 1,933 ng/mL. The “mean pre-dose level on Day 21” value in series [2] (Cohort 1) was 0.545 ng/mL; in series [2] (Cohort 2) it was 0.770 ng/mL; in series [2] (Cohort 3), 0.715 ng/mL; in series [2] (Cohort 4) it was 1.553 ng/mL. Moreover, the concentration at 15 study day in series [2] (human, in vivo, 75 mg CBD/day, Cohort 2, 75 mg CBD/day, multiple dose phase, read-out: mean CBD trough level on Day 15) worked out at 0.781 ng/mL; in series [2] (human, in vivo, 112.5 mg CBD/day, Cohort 3, 112.5 mg CBD/day, multiple dose phase, read-out: mean CBD trough level on Day 15), 0.525 ng/mL; in series [2] (human, in vivo, 225 mg CBD/day, Cohort 4, 225 mg CBD/day, multiple dose phase, all subjects, read-out: mean CBD trough level on Day 15), 2.11 ng/mL; in series [2] (human, in vivo, 225 mg CBD/day, Cohort 4, one outlier, read-out: CBD trough level on Day 15, outlier subject), 5.99 ng/mL; in series [2] (human, in vivo, 225 mg CBD/day, Cohort 4, without the outlier subject, read-out: mean CBD trough level on Day 15) it was 1.16 ng/mL. Also, the time of peak concentration (Tmax) in series [2] (human, in vivo, after BID dosing) was 18 to 20 h; in series [2] (human, in vivo, after QD dosing), 12 h. Moreover, the concentration at 7 days in series [2] (human, in vivo, all cohorts, study Day 8, seven days after initial dosing, read-out: Levels of CBD (below the limits of quantitation)) is less than 0.2 ng/mL. Further, the Cmax was found to be 0.309 ng/mL in series [2] (human, in vivo, Cohort 1: 37.5 mg CBD/day, 1 mL BTX 1503 5% QD); 0.562 ng/mL in series [2] (human, in vivo, Cohort 2: 75 mg CBD/day, 1 mL BTX 1503 5% BID); 0.626 ng/mL in series [2] (human, in vivo, Cohort 3: 112.5 mg CBD/day, 3 mL BTX 1503 5% QD); 0.876 ng/mL in series [2] (human, in vivo, Cohort 4: 225 mg CBD/day, 3 mL BTX 1503 5% BID). For the same molecule, in series [3], the “Study drug (CBD) plasma levels” value is recorded as “low”. Moreover, the “effect on cardiac inflammation” value in the series on rats is “attenuated cardiac inflammation”. For the same molecule, in series [4], the effects on sebocytes entry is “lipostatic, anti-proliferative, and anti-inflammatory effects”. Further, in series [5], the “effect on VR1” value is reported as “stimulate”.

The values above are taken from patent US20260272850A1, “Cannabinoid Dosing Regime for Acne” (priority 2018, published 2026).
